The values below come from patent US11566007B2, “Ras inhibitors” (Revolution Medicines, Inc., priority 2019, dated 2023).

One test concerns the target NRAS G12C (Homo sapiens (Human), UniProt P01111+P62937, G12C). In words: Ras-Raf (BRAF RBD) disruption / FRET / MOA assay, NRAS G12C. The note with it: read-out: IC50* NRAS G12C FRET data. It counts as biochemical. The procedure, abridged:
(§1)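 A 10-point, 3-fold dilution series topping at 30 μM final was incubated 3 h at 25° C with the Ras/cyclophilin A/BRAF RBD mixture.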

The target of another test is K-Ras G12C (Homo sapiens (Human), UniProt P01116+P62937, G12C). Put plainly: Ras-Raf (BRAF RBD) disruption / FRET / MOA assay, KRAS G12C. The test is classed as biochemical. Particulars: KRAS G12C; Ras-Raf disruption/FRET/MOA assay; read-out: IC50* KRAS G12C FRET data. Put shortly:
as §1

The target in a further test is KRAS G13D (Homo sapiens (Human), UniProt P01116+P62937, G13D). In words: Ras-Raf (BRAF RBD) disruption / FRET / MOA assay, KRAS G13D. The test is classed as biochemical. The note with it: read-out: IC50* KRAS G13D FRET data. The procedure, abridged: as §1
Chain of KRAS G13D (P01116-2 other isoform, or with tags, fused parts or gaps G13D): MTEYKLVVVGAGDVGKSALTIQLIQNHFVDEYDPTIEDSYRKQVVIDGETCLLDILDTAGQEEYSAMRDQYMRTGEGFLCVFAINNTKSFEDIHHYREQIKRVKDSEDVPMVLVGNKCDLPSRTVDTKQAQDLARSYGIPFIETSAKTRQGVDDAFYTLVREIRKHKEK
Chain of KRAS G13D (P62937 whole entry): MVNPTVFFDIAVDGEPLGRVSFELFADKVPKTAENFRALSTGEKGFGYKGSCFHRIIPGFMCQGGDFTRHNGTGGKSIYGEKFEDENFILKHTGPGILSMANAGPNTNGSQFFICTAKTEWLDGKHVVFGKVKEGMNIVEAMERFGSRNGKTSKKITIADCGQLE
For another test, the system named is NCI-H358 (K-Ras G12C). Put plainly: CellTiter-Glo cell viability assay, NCI-H358. It counts as cell-based, human. The note with it: Homo sapiens, NCI-H358, 120 h, NCI-H358, 5-day treatment; class symbols; read-out: Additional H358 Cell Viability assay data (K-Ras G12C, IC50). The procedure, abridged: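 Compounds were dispensed directly onto K-Ras mutant cells and incubated until day 5, then plates were equilibrated to room temperature for about 30 minutes before CellTiter-Glo luminescence. Signals were normalized as (sample/average DMSO)*100 and fitted by four-parameter logistic fit.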

Another test has as its target KRAS G12D (Homo sapiens (Human), UniProt P01116+P62937, G12D). Put plainly: Ras-Raf (BRAF RBD) disruption / FRET / MOA assay, KRAS G12D. The test is classed as biochemical. The note with it: Ras-Raf disruption/FRET/MOA assay; class symbols; read-out: KRAS G12D FRET data IC50. The procedure, abridged:
as §1

Another test concerns the target K-Ras G13C (Homo sapiens (Human), UniProt P01116+P62937, G13C). Put plainly: Ras-Raf (BRAF RBD) disruption / FRET / MOA assay, KRAS G13C. It counts as biochemical. The note with it: KRAS G13C; Ras-Raf disruption/FRET/MOA assay; read-out: IC50* KRAS G13C FRET data. Put shortly:
as §1

The next test deals with KRAS WT (Homo sapiens (Human), UniProt P01116+P62937). Put plainly: Ras-Raf (BRAF RBD) disruption / FRET / MOA assay, KRAS WT. The test is classed as biochemical. Particulars: read-out: IC50* KRAS WT FRET data. Put shortly: as §1
Chain of KRAS WT (P01116-2 other isoform, or with tags, fused parts or gaps): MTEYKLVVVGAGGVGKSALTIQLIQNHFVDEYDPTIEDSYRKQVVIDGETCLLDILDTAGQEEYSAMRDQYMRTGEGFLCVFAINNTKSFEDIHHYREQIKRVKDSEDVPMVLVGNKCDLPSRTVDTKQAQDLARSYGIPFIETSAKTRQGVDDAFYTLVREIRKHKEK
Chain of KRAS WT (P62937 whole entry): as the sequence (P62937 whole entry) above
The next test concerns the target KRAS G12S (Homo sapiens (Human), UniProt P01116+P62937, G12S). In words: Ras-Raf (BRAF RBD) disruption / FRET / MOA assay, KRAS G12S. It counts as biochemical. The note with it: Ras-Raf disruption/FRET/MOA assay; class symbols; read-out: KRAS G12S FRET data IC50. Put shortly: as §1
The test system of test [1] is NCI-H358 cells (K-Ras G12C). Put plainly: Potency assay: pERK in NCI-H358 cells. The test is classed as cell-based, human. Particulars: Homo sapiens, NCI-H358; H358 KRAS G12C; read-out: pERK EC50. The procedure, abridged:
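Inhibition of cellular pERK after a 4 h treatment, detected by AlphaLISA or In-Cell Western. IC50 from a four-parameter concentration-response fit.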

Another test has as its target KRAS G12V (Homo sapiens (Human), UniProt P01116+P62937, G12V). In words: Ras-Raf (BRAF RBD) disruption / FRET / MOA assay, KRAS G12V. Particulars: read-out: IC50* KRAS G12V FRET data. The test is classed as biochemical. The procedure, abridged:
as §1

The structures appear in SMILES notation. Where only a bound is given, the exact number is not on record here.

Chain of KRAS G12D (P01116-2 other isoform, or with tags, fused parts or gaps G12D): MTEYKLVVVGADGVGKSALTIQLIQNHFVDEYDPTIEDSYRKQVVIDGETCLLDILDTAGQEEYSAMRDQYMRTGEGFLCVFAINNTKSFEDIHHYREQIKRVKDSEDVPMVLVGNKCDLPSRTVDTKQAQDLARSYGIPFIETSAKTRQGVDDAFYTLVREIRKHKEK
Chain of KRAS G12D (P62937 whole entry): as the sequence (P62937 whole entry) above
Chain of KRAS G12S (P01116-2 other isoform, or with tags, fused parts or gaps G12S): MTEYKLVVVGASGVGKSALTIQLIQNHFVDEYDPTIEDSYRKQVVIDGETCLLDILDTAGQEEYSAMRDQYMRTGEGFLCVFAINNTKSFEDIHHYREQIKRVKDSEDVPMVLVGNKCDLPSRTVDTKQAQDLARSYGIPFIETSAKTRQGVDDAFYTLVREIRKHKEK
Chain of KRAS G12S (P62937 whole entry): as the sequence (P62937 whole entry) above
Chain of NRAS G12C (P01111 whole entry G12C): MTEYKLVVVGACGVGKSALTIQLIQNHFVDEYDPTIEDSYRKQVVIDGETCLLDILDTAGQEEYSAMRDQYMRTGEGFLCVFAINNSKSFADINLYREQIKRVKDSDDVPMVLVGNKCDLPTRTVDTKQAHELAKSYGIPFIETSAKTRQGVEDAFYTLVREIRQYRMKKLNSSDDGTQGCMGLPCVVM
Chain of NRAS G12C (P62937 whole entry): as the sequence (P62937 whole entry) above
Chain of K-Ras G13C (P01116-2 other isoform, or with tags, fused parts or gaps G13C): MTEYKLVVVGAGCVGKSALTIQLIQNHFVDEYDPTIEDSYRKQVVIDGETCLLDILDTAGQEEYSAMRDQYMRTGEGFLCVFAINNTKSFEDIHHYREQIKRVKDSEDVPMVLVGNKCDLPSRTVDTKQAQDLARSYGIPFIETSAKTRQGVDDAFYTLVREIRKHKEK
Chain of K-Ras G13C (P62937 whole entry): as the sequence (P62937 whole entry) above
Chain of KRAS G12V (P01116-2 other isoform, or with tags, fused parts or gaps G12V): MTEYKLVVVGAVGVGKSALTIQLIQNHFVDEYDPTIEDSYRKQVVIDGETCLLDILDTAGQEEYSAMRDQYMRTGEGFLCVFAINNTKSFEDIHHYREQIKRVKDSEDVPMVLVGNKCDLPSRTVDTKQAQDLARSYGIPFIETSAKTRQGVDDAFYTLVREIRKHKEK
Chain of KRAS G12V (P62937 whole entry): as the sequence (P62937 whole entry) above
Chain of K-Ras G12C (P01116-2 other isoform, or with tags, fused parts or gaps G12C): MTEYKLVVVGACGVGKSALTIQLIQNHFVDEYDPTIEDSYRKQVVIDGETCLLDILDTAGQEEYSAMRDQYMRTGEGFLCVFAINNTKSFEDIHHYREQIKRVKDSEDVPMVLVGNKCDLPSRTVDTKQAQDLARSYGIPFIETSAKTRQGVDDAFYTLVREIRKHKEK
Chain of K-Ras G12C (P62937 whole entry): as the sequence (P62937 whole entry) above

In the case of `C=CC(=O)N1CC[C@H](C(=O)N(C)[C@H](C(=O)N[C@H]2Cc3cc(O)cc(c3)-c3ccc4c(c3)c(c(-c3cc(CN(C)C)cnc3[C@H](C)OC)n4CC)CC(C)(C)COC(=O)[C@@H]3CCCN(N3)C2=O)C(C)C)C1` (atropisomer, axis not shown) [Example A536], the half-inhibitory concentration (IC50) (in general, the concentration that inhibits the measured activity by half) at NRAS G12C is 10 to 100 nM; on K-Ras G12C, 10 to 100 nM; on KRAS G13D, 100 to 1000 nM; in the test on NCI-H358 (K-Ras G12C), 10 to 100 nM; on KRAS G12D it was 1000 to 10000 nM; on K-Ras G13C, 100 to 1000 nM. Further, the concentration for half-maximal inhibition (IC50) at KRAS WT, at KRAS G12S and at KRAS G12V was 100 to 1000 nM each time. Also, in test [1], the EC50 (as a rule, the concentration giving half of the maximal effect) was under 5000 nM.

Regarding `CCn1c(-c2cccnc2[C@H](C)OC)c2c3cc(ccc31)-c1cc(cc(C(F)F)c1)C[C@H](NC(=O)C(COC1CN(C(=O)C#CC(C)(C)N(C)C)C1)C(C)C)C(=O)N1CCC[C@H](N1)C(=O)OCC(C)(C)C2` (mixture of isomers) [Example A404], the 50% inhibitory concentration (IC50) on NRAS G12C is 100 to 1000 nM; on K-Ras G12C it was 100 to 1000 nM; at KRAS G13D, over 10000 nM; in the test with NCI-H358 (K-Ras G12C), 10 to 100 nM; at KRAS G12D, over 10000 nM; on K-Ras G13C it was over 10000 nM. Moreover, the IC50 at KRAS WT, on KRAS G12S and on KRAS G12V was over 10000 nM each time. For the same compound, the EC50 in test [1] was under 5000 nM.

With `C=CC(=O)N1CC(OCC(C(=O)N[C@H]2Cc3cccc(c3)-c3ccc4c(c3)c(c(-c3cccnc3[C@H](C)OC)n4CC(F)(F)F)CC(C)(C)COC(=O)[C@@H]3CCCN(N3)C2=O)C(C)C)C1` (mixture of isomers) [Example A453], the half-inhibitory concentration (IC50) was 1000 to 10000 nM on NRAS G12C; 1000 to 10000 nM at K-Ras G12C; over 10000 nM at KRAS G13D; 100 to 1000 nM in the test with NCI-H358 (K-Ras G12C); over 10000 nM on KRAS G12D; over 10000 nM on K-Ras G13C. The concentration for half-maximal inhibition (IC50) on KRAS WT, on KRAS G12S and at KRAS G12V was over 10000 nM throughout. Further, in [1], the EC50 is under 5000 nM.

Regarding `C=CC(=O)N1CC(OCC(C(=O)N[C@H]2Cc3nc(cs3)-c3ccc4c(c3)c(c(-c3cccnc3[C@H](C)OC)n4CC)CC(C)(C)COC(=O)[C@@H]3CCCN(N3)C2=O)C(C)C)C1` (mixture of isomers) [Example A473], the IC50 on NRAS G12C is 100 to 1000 nM; on K-Ras G12C, 100 to 1000 nM; at KRAS G13D, 1000 to 10000 nM; with NCI-H358 (K-Ras G12C), 10 to 100 nM; on KRAS G12D, over 10000 nM; on K-Ras G13C, 1000 to 10000 nM. Besides, the IC50 at KRAS WT, at KRAS G12S and on KRAS G12V was 1000 to 10000 nM in each case. The concentration giving a half-maximal response (EC50) in test [1] was under 5000 nM.

As to `CCn1c(-c2cccnc2[C@H](C)OC)c2c3cc(ccc31)-c1cccc(c1)C[C@H](NC(=O)[C@H](C(C)C)N(C)C(=O)[C@H]1CCN(C(=O)C#CC3CCO3)C1)C(=O)N1CCC[C@H](N1)C(=O)OCC(C)(C)C2` (mixture of isomers) [Example A509], the IC50 was under 10 nM at NRAS G12C; under 10 nM at K-Ras G12C; 1000 to 10000 nM at KRAS G13D; under 10 nM in the test with NCI-H358 (K-Ras G12C); over 10000 nM at KRAS G12D; 100 to 1000 nM at K-Ras G13C. Moreover, the IC50 on KRAS WT, on KRAS G12S and on KRAS G12V was 1000 to 10000 nM each time. Besides, the 50% effective concentration (EC50) in test [1] was under 5000 nM.

In the case of `CCn1c(-c2cccnc2[C@H](C)OC)c2c3cc(ccc31)-c1csc(n1)C[C@H](NC(=O)[C@H](C(C)C)N1CC[C@@]3(CCN(C(=O)C#CC(C)(C)N(C)C)C3)C1=O)C(=O)N1CCC[C@H](N1)C(=O)OCC(C)(C)C2` (single isomer, unassigned) [Example A425], the IC50 at NRAS G12C was 10 to 100 nM; on K-Ras G12C, under 10 nM; on KRAS G13D, over 10000 nM; with NCI-H358 (K-Ras G12C), under 10 nM; at KRAS G12D, over 10000 nM; on K-Ras G13C, 100 to 1000 nM. For the same compound, the concentration for half-maximal inhibition (IC50) at KRAS WT is over 10000 nM; at KRAS G12S, 1000 to 10000 nM; at KRAS G12V, over 10000 nM. Also, the EC50 in test [1] was under 5000 nM.
